Read-outs that look alike come from different tables or passages of the source.
Key:
A-549 = assay: Cell proliferation inhibition, Cell Counting Kit-8, non-small cell lung cancer cell line; assay type: cell-based; details: A-549 cell line; 72 hours incubation; test concentration not given
RET (G810S/M918T) = molecular target: T1, RET (G810S/M918T) (Homo sapiens, UniProt P07949, G810S/M918T); assay: Kinase panel inhibition, radiolabeled [γ-33P] ATP (Reaction Biology Corp); assay type: biochemical; details: compound at 10 uM, ATP 1 µM
T1 construct: purchased Reaction Biology Corp
Method: (§1) Using radiolabeled ATP ([γ-33P] ATP), the degree to which the substrate was replaced by a 33P-phosphorylated substrate was measured, and changes in kinase activity were determined from the measurement of the radiolabeled phosphorylated substrate.

RET-CCDC6 (PTC1) = molecular target: T2, RET-CCDC6 (PTC1) (Homo sapiens, UniProt P07949); assay: as above; assay type: biochemical; details: compound at 10 uM, ATP 1 µM
T2 construct: purchased Reaction Biology Corp
Method: as §1

BaF3-RET(V804M) = assay: Cell proliferation inhibition (GI50), Cell Counting Kit-8, Ba/F3 cell line; assay type: cell-based, rodent; details: Mus musculus, read-out: GI50 of BaF3-RET(V804M)
Method: To evaluate the inhibitory activity of the compounds represented by Formula I or Formula IV according to the present invention against RET mutation-driven cell growth in the Ba/F3 cell line and against cell growth in the non-small cell lung cancer cell line A-549, the following experiment was performed.
Each cell line was seeded in a 96-well plate at 1×10^4 cells/90 µL/well, and 10 µL/well of culture medium containing each example and intermediate compound or DMSO control at 9 concentrations (1 nM to 100 µM) prepared by 3-fold serial dilutions was added to achieve a final concentration of 0 to 100 µM, followed by incubation for 72 hours in a 37°C, 5% CO2 incubator. After 72 hours of incubation, the compound-treated plates were removed, and Cell Counting Kit-8 solution was added at 10 µL/well and mixed well. The plates were then incubated for 2 hours in a CO2 incubator at 37°C, and the absorbance was measured at 450 nm using a microplate reader.
In addition, the data were expressed as a percentage relative to vehicle-treated cells, and GI50 values were calculated using GraphPad Prism 8.0 (GraphPad Software Inc., San Diego), and the results are shown in Table 8 below. As a control compound, ponatinib, a known RET inhibitor, was treated to calculate the GI50 values.

RET(G810R) = molecular target: T3, RET(G810R) (Homo sapiens, UniProt P07949, G810R); assay: Kinase panel inhibition, radiolabeled [γ-33P] ATP (Reaction Biology Corp); assay type: biochemical; details: compound at 0.1 uM; ATP 10 µM; read-out: % Enzyme Activity (relative to DMSO controls) G810R
T3 construct: purchased Reaction Biology Corp
Method: as §1

RET(V804M)-KIF5B = molecular target: T4, RET(V804M)-KIF5B (Homo sapiens, UniProt P07949, V804M); assay: as above; assay type: biochemical; details: compound at 0.1 uM; ATP 10 µM; read-out: % Enzyme Activity (relative to DMSO controls) RET (V804M )-KIF5B
T4 sequence (P07949 713-1114 V804M): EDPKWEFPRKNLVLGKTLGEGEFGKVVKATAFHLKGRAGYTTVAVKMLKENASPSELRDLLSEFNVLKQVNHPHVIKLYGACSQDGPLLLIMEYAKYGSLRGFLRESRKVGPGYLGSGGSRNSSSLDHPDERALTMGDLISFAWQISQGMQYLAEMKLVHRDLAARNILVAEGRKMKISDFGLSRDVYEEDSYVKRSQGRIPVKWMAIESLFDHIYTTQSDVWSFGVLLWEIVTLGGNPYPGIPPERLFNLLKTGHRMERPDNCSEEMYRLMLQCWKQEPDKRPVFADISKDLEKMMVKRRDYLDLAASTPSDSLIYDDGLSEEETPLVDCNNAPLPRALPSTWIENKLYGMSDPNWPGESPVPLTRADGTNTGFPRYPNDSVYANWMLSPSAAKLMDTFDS
T4 sequence (P33176 2-575 partner): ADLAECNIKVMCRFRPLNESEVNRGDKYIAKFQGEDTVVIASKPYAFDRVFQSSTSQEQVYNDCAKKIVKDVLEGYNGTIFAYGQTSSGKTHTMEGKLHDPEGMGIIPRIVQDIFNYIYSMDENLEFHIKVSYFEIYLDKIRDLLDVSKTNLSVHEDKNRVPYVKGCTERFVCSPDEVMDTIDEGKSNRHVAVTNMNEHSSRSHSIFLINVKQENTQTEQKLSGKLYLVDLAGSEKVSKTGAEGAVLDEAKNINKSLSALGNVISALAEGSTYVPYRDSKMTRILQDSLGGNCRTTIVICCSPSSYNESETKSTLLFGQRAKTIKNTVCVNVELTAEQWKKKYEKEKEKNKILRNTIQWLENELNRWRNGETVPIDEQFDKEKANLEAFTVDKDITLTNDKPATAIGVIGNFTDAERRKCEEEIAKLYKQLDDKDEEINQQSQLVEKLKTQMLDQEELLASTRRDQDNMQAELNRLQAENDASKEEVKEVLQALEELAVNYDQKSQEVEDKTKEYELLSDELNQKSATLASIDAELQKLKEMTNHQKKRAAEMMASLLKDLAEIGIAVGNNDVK
Method: as §1

RET(V804M) = molecular target: T5, RET(V804M) (Homo sapiens, UniProt P07949, V804M); assay: as above; assay type: biochemical; details: compound at 0.1 uM; ATP 10 µM; read-out: % Enzyme Activity (relative to DMSO controls) V804M
T5 construct: purchased Reaction Biology Corp
Method: as §1

[1] = Data 1, read-out: % Enzyme Activity (relative to DMSO controls) RET (G810S/M918T) Data 1
[2] = Data 2, read-out: % Enzyme Activity (relative to DMSO controls) RET (G810S/M918T) Data 2
[3] = Data 1, read-out: % Enzyme Activity (relative to DMSO controls) RET-CCDC6 (PTC1) Data 1
[4] = Data 2, read-out: % Enzyme Activity (relative to DMSO controls) RET-CCDC6 (PTC1) Data 2
[5] = BaF3, 72 hours incubation, Cell Counting Kit-8

T1 sequence (P07949 29-1114 G810S/M918T): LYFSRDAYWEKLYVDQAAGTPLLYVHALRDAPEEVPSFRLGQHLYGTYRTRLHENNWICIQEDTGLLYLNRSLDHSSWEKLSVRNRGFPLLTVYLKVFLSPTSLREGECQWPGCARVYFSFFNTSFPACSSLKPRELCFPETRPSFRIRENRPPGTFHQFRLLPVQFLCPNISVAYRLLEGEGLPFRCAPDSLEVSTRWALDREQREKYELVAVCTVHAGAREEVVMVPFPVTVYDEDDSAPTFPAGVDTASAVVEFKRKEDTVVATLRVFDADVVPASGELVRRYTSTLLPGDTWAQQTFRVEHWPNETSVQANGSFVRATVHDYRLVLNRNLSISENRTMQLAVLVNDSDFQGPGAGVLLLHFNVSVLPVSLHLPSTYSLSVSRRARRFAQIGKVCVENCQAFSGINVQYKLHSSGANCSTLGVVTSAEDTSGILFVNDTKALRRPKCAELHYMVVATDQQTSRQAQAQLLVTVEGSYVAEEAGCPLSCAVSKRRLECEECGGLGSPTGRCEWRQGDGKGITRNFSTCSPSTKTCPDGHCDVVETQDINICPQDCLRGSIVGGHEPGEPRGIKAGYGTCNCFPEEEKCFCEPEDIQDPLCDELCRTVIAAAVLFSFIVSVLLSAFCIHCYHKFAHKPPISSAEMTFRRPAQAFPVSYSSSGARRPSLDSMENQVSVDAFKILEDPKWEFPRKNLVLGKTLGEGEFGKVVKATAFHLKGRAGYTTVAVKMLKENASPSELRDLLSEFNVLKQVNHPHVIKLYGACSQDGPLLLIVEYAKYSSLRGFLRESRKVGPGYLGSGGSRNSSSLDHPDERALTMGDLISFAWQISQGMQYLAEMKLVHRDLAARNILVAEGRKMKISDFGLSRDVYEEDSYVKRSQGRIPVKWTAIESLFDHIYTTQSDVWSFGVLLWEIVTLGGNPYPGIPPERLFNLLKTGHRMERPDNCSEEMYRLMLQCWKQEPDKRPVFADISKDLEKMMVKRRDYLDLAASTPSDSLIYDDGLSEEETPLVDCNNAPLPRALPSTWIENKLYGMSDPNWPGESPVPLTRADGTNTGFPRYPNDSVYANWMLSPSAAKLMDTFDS
T5 sequence (P07949 29-1114 V804M): as the sequence (P07949 29-1114 G810S/M918T) above, with V776M, S782G, T890M counted along it
T3 sequence (P07949 29-1114 G810R): as the sequence (P07949 29-1114 G810S/M918T) above, with S782R, T890M counted along it
T2 sequence (P07949 whole entry, looked up): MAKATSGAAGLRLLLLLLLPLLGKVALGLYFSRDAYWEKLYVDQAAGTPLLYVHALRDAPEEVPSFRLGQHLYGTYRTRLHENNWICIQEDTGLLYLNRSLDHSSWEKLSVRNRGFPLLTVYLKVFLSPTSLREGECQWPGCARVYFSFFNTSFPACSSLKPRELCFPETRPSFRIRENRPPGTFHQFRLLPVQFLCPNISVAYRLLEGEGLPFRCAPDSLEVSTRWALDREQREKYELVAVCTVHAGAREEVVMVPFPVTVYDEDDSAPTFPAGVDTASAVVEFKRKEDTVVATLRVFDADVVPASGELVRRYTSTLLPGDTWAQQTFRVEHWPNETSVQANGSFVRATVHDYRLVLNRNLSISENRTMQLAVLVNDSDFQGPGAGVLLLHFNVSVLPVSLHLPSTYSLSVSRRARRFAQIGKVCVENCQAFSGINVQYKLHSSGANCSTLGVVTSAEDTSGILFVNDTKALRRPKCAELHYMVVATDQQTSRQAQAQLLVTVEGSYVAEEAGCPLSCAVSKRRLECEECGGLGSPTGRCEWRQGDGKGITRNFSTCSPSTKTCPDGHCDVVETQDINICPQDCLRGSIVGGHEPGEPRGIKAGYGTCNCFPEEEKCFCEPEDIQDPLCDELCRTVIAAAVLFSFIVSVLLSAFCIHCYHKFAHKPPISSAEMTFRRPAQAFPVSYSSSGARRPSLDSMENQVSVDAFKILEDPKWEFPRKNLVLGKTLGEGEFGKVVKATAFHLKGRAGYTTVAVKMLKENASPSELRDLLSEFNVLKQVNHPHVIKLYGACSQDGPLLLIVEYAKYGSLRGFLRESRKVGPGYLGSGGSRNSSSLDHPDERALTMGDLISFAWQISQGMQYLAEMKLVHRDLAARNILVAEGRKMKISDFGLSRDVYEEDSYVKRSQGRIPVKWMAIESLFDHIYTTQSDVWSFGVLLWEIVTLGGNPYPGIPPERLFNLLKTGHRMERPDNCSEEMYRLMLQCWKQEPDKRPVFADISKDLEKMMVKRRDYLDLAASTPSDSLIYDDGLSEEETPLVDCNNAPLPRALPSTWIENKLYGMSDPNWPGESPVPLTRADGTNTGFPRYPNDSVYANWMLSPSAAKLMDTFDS

## CNc1cc(-c2ccc(N3CC(Oc4cccc(F)c4)C3)nc2)c2nccnc2c1 [Example 2, 8-(6-(3-(3-fluorophenoxy)azetidin-1-yl)pyridin-3-yl)-N-methylquinoxalin-6-amine]
A-549
  Cell Proliferation (% of control): 18.59%
RET (G810S/M918T); [1]
  remaining activity at 10 µM: 0.05%
RET (G810S/M918T); [2]
  remaining activity at 10 µM: -0.43%
RET-CCDC6 (PTC1); [3]
  remaining activity at 10 µM: 1.38%
RET-CCDC6 (PTC1); [4]
  remaining activity at 10 µM: 0.23%
BaF3-RET(V804M); [5]
  GI50: 0.943 µM
RET(G810R)
  remaining activity at 0.1 µM: 77.3%

## CNc1cc(-c2ccc(N3CC[C@H](NC(=O)c4ccccc4F)C3)nc2)c2nccnc2c1 [Example 11, (S)-2-fluoro-N-(1-(5-(7-(methylamino)quinoxalin-5-yl)pyridin-2-yl)pyrrolidin-3-yl)benzamide]
A-549
  Cell Proliferation (% of control): 20.80%
RET (G810S/M918T); [1]
  remaining activity at 10 µM: -0.84%
RET (G810S/M918T); [2]
  remaining activity at 10 µM: -0.85%
RET-CCDC6 (PTC1); [3]
  remaining activity at 10 µM: 1.36%
RET-CCDC6 (PTC1); [4]
  remaining activity at 10 µM: 1.07%
BaF3-RET(V804M); [5]
  GI50: 2.12 µM
RET(G810R)
  remaining activity at 0.1 µM: 56%

## CCNc1cc(-c2ccc(N3CC[C@H](NC(=O)c4ccccc4F)C3)nc2)c2nccnc2c1 [Example 12, (S)-N-(1-(5-(7-(ethylamino)quinoxalin-5-yl)pyridin-2-yl)pyrrolidin-3-yl)-2-fluorobenzamide]
A-549
  Cell Proliferation (% of control): 41.67%
RET(V804M)-KIF5B
  remaining activity at 0.1 µM: 5.5%
RET (G810S/M918T); [1]
  remaining activity at 10 µM: 2.65%
RET (G810S/M918T); [2]
  remaining activity at 10 µM: 0.69%
RET-CCDC6 (PTC1); [3]
  remaining activity at 10 µM: 1.25%
RET-CCDC6 (PTC1); [4]
  remaining activity at 10 µM: 1.01%
BaF3-RET(V804M); [5]
  GI50: 1.05 µM
RET(G810R)
  remaining activity at 0.1 µM: 59.9%
RET(V804M)
  remaining activity at 0.1 µM: 2.27%

## CCNc1cc(C#CCN2CCOCC2)c2nccnc2c1 [Example 31, N-ethyl-8-(3-morpholinoprop-1-yn-1-yl)quinoxalin-6-amine]
A-549
  Cell Proliferation (% of control): 51.88%
RET(V804M)-KIF5B
  remaining activity at 0.1 µM: 109%
RET (G810S/M918T); [1]
  remaining activity at 10 µM: 61.7%
RET (G810S/M918T); [2]
  remaining activity at 10 µM: 61.2%
RET-CCDC6 (PTC1); [3]
  remaining activity at 10 µM: 14.8%
RET-CCDC6 (PTC1); [4]
  remaining activity at 10 µM: 15.4%
RET(G810R)
  remaining activity at 0.1 µM: 98.5%
RET(V804M)
  remaining activity at 0.1 µM: 105%

## CCNc1cc(Nc2cc(C)[nH]n2)c2nccnc2c1 [Example 32, N7-ethyl-N5-(5-methyl-1H-pyrazol-3-yl)quinoxaline-5,7-diamine]
A-549
  Cell Proliferation (% of control): 92.91%
RET(V804M)-KIF5B
  remaining activity at 0.1 µM: 85.9%
RET (G810S/M918T); [1]
  remaining activity at 10 µM: 41.9%
RET (G810S/M918T); [2]
  remaining activity at 10 µM: 40.6%
RET-CCDC6 (PTC1); [3]
  remaining activity at 10 µM: 5.39%
RET-CCDC6 (PTC1); [4]
  remaining activity at 10 µM: 4.58%
RET(G810R)
  remaining activity at 0.1 µM: 96.6%
RET(V804M)
  remaining activity at 0.1 µM: 88.7%

## Cc1ccc(C(=O)Nc2ccc(CN3CCN(C)CC3)c(C(F)(F)F)c2)cc1C#Cc1cnc2cccnn12 [Ponatinib, ponatinib, reference compound]
A-549
  Cell Proliferation (% of control): -1.99%
BaF3-RET(V804M); BaF3, 72 h
  GI50: 0.115 µM
